Consider two compounds from US8535706B2, “Bone implant” (Duquesne University of the Holy Spirit, priority 2010, dated 2013).

The nature of series [1]: Heat stability of Melatonin adsorbed or linked to a substrate. In kind it is physicochemical. The text has this:
In the practice of the invention, the coadministration, adsorption or linking of Melatonin to the bone graft substrate preferably involves Melatonin per se, although the use of the precursors or metabolites of Melatonin (including but not limited to 5-hydroxytryptophan (5OHTrp), 5-hydroxytryptamine (5HT), N-acetyl-5-hydroxytryptamine (NA5OHT) or 6-hydroxymelatonin (6OHMEL)) still falls within the scope of this invention albeit in a less preferred way.

The subject of a further series is mesenchymal stem cells. The conditions noted are these: cited from earlier work.

Take `COc1ccc2[nH]cc(CCNC(C)=O)c2c1` [Melatonin, N-acetyl-5-methoxytryptamine]: in series [1] (adsorbed or linked to substrate, autoclaved such as at 180° C.), the stability to autoclaving entry is recorded as “surviving the autoclaving process intact”. The stability to sintering result in series [1] (sintering temperatures used to make bone grafts and implants) is “cannot survive”.
Regarding arg-gly-asp [RDG peptide], the “spreading of the cells” value in the series on mesenchymal stem cells (mesenchymal stem cells) was “does not enhance the spreading”. For the same compound, in the series with mesenchymal stem cells (substrates: hydroxyapatite, titanium, polymer scaffolds), the “attachment of mesenchymal stem cells” value is listed as “can increase the attachment”.
